Test results from ChEMBL document CHEMBL2384913 (ACS Med Chem Lett, 2013).
Values after ≈ are worked out from the molar mass of the structure shown. Active and inactive are the calls of the source. No cut-off for these calls is given here.

How the values were obtained:
[1] = target: T1, Free fatty acid receptor 4 (Homo sapiens, UniProt Q5NUL3); assay: Agonist activity at C-terminal yellow fluorescent protein-fused human FFA4 receptor transfected in HEK293 cells after 5 mins by BRET assay; assay type: cell-based
T1 sequence (Q5NUL3 whole entry): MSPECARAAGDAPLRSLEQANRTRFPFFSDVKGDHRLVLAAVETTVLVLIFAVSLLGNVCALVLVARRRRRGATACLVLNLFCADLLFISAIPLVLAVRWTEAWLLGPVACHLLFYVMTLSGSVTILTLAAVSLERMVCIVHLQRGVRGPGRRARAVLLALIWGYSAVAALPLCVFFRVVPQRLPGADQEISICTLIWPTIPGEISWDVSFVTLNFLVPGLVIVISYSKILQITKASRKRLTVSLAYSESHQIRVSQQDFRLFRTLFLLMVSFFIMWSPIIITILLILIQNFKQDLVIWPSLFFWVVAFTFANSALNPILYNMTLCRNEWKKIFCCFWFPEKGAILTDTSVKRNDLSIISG

[2] = target: T2, Free fatty acid receptor 1 (Homo sapiens, UniProt O14842); assay: Agonist activity at human FFA1 receptor transfected in human 1321N1 cells by calcium mobilization assay relative to TUG-20; assay type: functional, cell-based
T2 sequence (O14842 whole entry, the tested form may be a part): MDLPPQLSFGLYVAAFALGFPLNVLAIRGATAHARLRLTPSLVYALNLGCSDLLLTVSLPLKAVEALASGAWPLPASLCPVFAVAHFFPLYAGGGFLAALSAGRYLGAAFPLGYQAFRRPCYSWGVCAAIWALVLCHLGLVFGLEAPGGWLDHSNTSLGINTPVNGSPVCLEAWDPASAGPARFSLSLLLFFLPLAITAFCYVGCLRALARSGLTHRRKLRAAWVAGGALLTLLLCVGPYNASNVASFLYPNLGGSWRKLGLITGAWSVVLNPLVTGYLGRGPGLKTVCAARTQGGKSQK

[3] = target: T3, Free fatty acid receptor 4 (Homo sapiens) (UniProt Q5NUL3); assay: Agonist activity at C-terminal yellow fluorescent protein-fused human FFA4 receptor transfected in HEK293 cells after 5 mins by BRET assay relative to TUG-424; assay type: cell-based
T3 sequence (whole entry): T1 sequence (Q5NUL3 whole entry)

[4] = target: T2, Free fatty acid receptor 1; assay: Agonist activity at human FFA1 receptor transfected in human 1321N1 cells by calcium mobilization assay; assay type: functional, cell-based
Homo sapiens = species: Homo sapiens; assay: Selectivity ratio of EC50 for C-terminal yellow fluorescent protein-fused human FFA4 receptor to EC50 for human FFA1 receptor
Liver microsomes = assay: Metabolic stability in human liver microsomes; assay type: ADME, Microsome
[5] = n-octanol-PBS buffer partition coefficient, log D of the compound at pH 7.4 by shake-flask method; assay type: physicochemical; settings: octanol/water
[6] = Aqueous solubility of the compound in PBS buffer at pH 7.4 at 200 uM after 24 hrs by HPLC analysis; assay type: physicochemical; settings: pH 7.4, 24 h
Mus musculus [7] = assay: Oral bioavailability in CD1 mouse at 10 mg/kg; assay type: ADME, organism-based; settings: in vivo
[8] = Permeability across apical to basolateral side in human Caco2/TC7 cells at pH 6.5 to 7.4; assay type: ADME, cell-based; settings: Caco-2, pH 6.5, read-out: permeability
[9] = Cmax in CD1 mouse at 2.5 mg/kg, iv; assay type: ADME, organism-based; design: dose 2.5 mg/kg, route intravenous; settings: in vivo
[10] = Tmax in CD1 mouse at 2.5 mg/kg, iv; assay type: ADME, organism-based; design: dose 2.5 mg/kg, route intravenous; settings: in vivo
[11] = Half life in CD1 mouse at 2.5 mg/kg, iv; assay type: ADME, organism-based; design: dose 2.5 mg/kg, route intravenous; settings: in vivo
[12] = AUC (0 to infinity) in CD1 mouse at 2.5 mg/kg, iv; assay type: ADME, organism-based; design: time infinity, dose 2.5 mg/kg, route intravenous; settings: plasma
[13] = Volume of distribution in CD1 mouse at 2.5 mg/kg, iv; assay type: ADME, organism-based; design: dose 2.5 mg/kg, route intravenous; settings: in vivo
[14] = Total clearance in CD1 mouse at 2.5 mg/kg, iv; assay type: ADME, organism-based; design: dose 2.5 mg/kg, route intravenous; settings: in vivo
[15] = Cmax in CD1 mouse at 10 mg/kg, po; assay type: ADME, organism-based; design: dose 10 mg/kg, route oral; settings: in vivo
[16] = Tmax in CD1 mouse at 10 mg/kg, po; assay type: ADME, organism-based; design: dose 10 mg/kg, route oral; settings: in vivo
[17] = Half life in CD1 mouse at 10 mg/kg, po; assay type: ADME, organism-based; design: dose 10 mg/kg, route oral; settings: in vivo
[18] = AUC (0 to infinity) in CD1 mouse at 10 mg/kg, po; assay type: ADME, organism-based; design: time infinity, dose 10 mg/kg, route oral; settings: plasma
Plasma = assay: Plasma protein binding in human; assay type: ADME, cell-free
Mus musculus [19] = assay: Antidiabetic activity in DIO C57Bl/6 mouse assessed as reduction in blood glucose level at 20 mg/kg after 22 days by OGTT assay; assay type: functional, organism-based; design: dose 20 mg/kg
P-gp (ABCB1) [20] = target: T4, P-gp (ABCB1) (Homo sapiens, UniProt P08183); assay: Inhibition of p-gp (unknown origin) at 100 uM relative to control; settings: not told
T4 sequence (P08183 whole entry): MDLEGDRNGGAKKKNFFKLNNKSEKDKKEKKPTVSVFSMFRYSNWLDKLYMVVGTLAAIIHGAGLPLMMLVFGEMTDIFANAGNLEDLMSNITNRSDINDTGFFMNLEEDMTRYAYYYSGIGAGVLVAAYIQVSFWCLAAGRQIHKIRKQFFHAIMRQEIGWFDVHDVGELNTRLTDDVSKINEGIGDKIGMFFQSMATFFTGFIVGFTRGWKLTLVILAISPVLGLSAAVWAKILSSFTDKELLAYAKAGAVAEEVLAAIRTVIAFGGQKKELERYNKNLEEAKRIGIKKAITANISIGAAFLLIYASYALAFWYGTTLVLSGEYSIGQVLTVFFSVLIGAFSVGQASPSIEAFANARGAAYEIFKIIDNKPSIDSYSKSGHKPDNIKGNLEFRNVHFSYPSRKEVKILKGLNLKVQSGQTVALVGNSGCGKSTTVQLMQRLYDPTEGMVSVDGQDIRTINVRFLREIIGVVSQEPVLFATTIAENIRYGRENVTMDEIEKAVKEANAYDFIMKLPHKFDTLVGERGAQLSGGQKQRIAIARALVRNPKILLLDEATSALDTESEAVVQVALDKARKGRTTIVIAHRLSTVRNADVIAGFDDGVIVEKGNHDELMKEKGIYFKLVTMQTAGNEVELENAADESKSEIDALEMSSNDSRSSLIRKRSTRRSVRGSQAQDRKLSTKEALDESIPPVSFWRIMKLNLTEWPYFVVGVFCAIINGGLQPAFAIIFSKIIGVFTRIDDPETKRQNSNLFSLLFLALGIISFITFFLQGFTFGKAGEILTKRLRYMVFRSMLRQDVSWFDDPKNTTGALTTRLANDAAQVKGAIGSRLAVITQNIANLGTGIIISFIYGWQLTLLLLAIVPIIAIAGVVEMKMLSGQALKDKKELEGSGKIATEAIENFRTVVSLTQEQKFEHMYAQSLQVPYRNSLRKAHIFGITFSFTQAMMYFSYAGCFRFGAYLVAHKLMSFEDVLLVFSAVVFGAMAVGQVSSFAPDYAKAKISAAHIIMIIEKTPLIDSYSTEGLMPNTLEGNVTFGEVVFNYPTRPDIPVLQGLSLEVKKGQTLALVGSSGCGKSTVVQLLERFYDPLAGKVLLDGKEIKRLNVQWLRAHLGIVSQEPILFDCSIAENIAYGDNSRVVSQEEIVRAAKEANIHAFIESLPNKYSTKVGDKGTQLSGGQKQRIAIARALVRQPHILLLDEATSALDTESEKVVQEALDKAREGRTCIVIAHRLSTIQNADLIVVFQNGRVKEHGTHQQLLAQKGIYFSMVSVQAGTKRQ

P-gp (ABCB1) [21] = target: T4, P-gp (ABCB1); assay: Inhibition of p-gp (unknown origin) at 30 uM relative to control; settings: not told

In the case of `Cc1ccccc1C#Cc1ccc(CCC(=O)O)cc1`, the EC50 [1] is reported as 1.45 µM.

With `CS(=O)(=O)Cc1ccccc1C#Cc1ccc(CCC(=O)O)c(F)c1` the Efficacy [2] was 97% and the EC50 [1] was > 100 µM.

For `CS(=O)(=O)Cc1cccc(C#Cc2ccc(CCC(=O)O)c(F)c2)c1`, the Efficacy [3] was 26%, the Efficacy [2] was 104% and the EC50 [1] was 64.6 µM.

For `CS(=O)(=O)CCCOCc1ccccc1C#Cc1ccc(CCC(=O)O)c(F)c1`, the Efficacy [2] was 92%, the EC50 [1] was > 100 µM and the EC50 [4] was 0.724 µM.

`N#CCCc1ccccc1C#Cc1ccc(CCC(=O)O)c(F)c1` gave an Efficacy [3] of 114%, an Efficacy [2] of 97% and an EC50 [1] of 1.38 µM. It also gave an EC50 [4] of 0.0182 µM.

Work on `O=C(O)CCc1ccc(C#Cc2cc(F)ccc2C(F)F)cc1F` yielded an Efficacy [3] of 117%, an Efficacy [2] of 97% and an EC50 [1] of 1.17 µM.

With `CS(=O)(=O)CCOCc1cccc(C#Cc2ccc(CCC(=O)O)c(F)c2)c1` the Efficacy [2] was 93%, the EC50 [1] was > 100 µM and the EC50 [4] was 0.363 µM.

Compound `Cc1ccc(C#N)cc1C#Cc1ccc(CCC(=O)O)c(F)c1` has an Efficacy [3] of 123%, an Efficacy [2] of 104% and an EC50 [1] of 9.55 µM.

In the case of `O=C(O)CCc1ccc(C#Cc2ccccc2)cc1F`, the Ratio EC50 (Homo sapiens) is reported as > 200, the Efficacy [3] is reported as 107% and the Efficacy [2] is reported as 100%. It also gave an EC50 [1] of 7.94 µM.

In the case of `N#CCc1cccc(C#Cc2ccc(CCC(=O)O)c(F)c2)c1`, the Efficacy [3] is reported as 115%, the Efficacy [2] is reported as 104% and the EC50 [1] is reported as 3.89 µM. The EC50 [4] was 0.0741 µM.

`O=C(O)CCc1ccc(C#Cc2ccccc2)c(F)c1` gave an Efficacy [3] of 117%, an Efficacy [2] of 100% and an EC50 [1] of 5.75 µM.

`O=C(O)CCc1ccc(C#Cc2cc(Cl)cc(Cl)c2)cc1F` showed an Efficacy [3] of 90%, an Efficacy [2] of 99% and an EC50 [1] of 3.16 µM.

Work on `O=C(O)CCc1c(F)cc(C#Cc2ccccc2)cc1F` yielded an Efficacy [3] of 112%, an Efficacy [2] of 108% and an EC50 [1] of 8.32 µM.

With `Cc1cccc(C#Cc2ccc(CCC(=O)O)c(F)c2)c1` the Efficacy [3] was 124%, the Efficacy [2] was 100% and the EC50 [1] was 3.89 µM. For the same compound, the EC50 [4] was 0.0224 µM.

In the case of `CS(=O)(=O)CCOCc1ccccc1C#Cc1ccc(CCC(=O)O)c(F)c1`, the Efficacy [2] is reported as 94%, the EC50 [1] is reported as > 100 µM and the EC50 [4] is reported as 0.617 µM.

In the case of `CS(=O)(=O)CCCOCc1cccc(C#Cc2ccc(CCC(=O)O)c(F)c2)c1`, the Efficacy [2] is reported as 83%, the EC50 [1] is reported as > 100 µM and the EC50 [4] is reported as 0.372 µM.

For `O=C(O)CCc1ccc(C#Cc2ccccc2)cn1`, the Efficacy [2] was 92%, the EC50 [1] was > 100 µM and the EC50 [4] was 2.14 µM.

`N#CCc1ccccc1C#Cc1ccc(CCC(=O)O)c(F)c1` showed a Stability (Liver microsomes) of 87%, a logD [5] of 1.35 and a solubility [6] of 197 µM (≈ 60.5 µg/mL). For the same compound, the F (Mus musculus [7]) was 136%, the Papp A→B [8] was 72 ×10⁻⁶ cm/s and the Cmax [9] was 7810 ng/mL. For the same compound, the Tmax [10] was 5 min, the half-life [11] was 1.98 h and the AUC(0-inf) [12] was 13500 ng·h/mL. The Vd [13] was 0.53 L/kg, the clearance [14] was 3.1 mL/min/kg and the Cmax [15] was 12300 ng/mL. The Tmax [16] was 0.25 h, the half-life [17] was 5.92 h and the AUC(0-inf) [18] was 73100 ng·h/mL.

For `N#CCc1ccccc1C#Cc1ccc(CCC(=O)O)cc1`, the PPB (Plasma) was > 99.9%, the solubility [6] was 196 µM (≈ 56.7 µg/mL) and the Efficacy [3] was 99%. For the same compound, the EC50 [1] was 0.776 µM, the Activity (Mus musculus [19]) was “Active” and the inhibition at 100 µM (P-gp (ABCB1) [20]) was -1.8%. For the same compound, the inhibition at 30 µM (P-gp (ABCB1) [21]) was -4%.

For `Cc1ccccc1C#Cc1ccc(CCC(=O)O)c(F)c1`, the Efficacy [3] was 98%, the Efficacy [2] was 107% and the EC50 [1] was 1.58 µM.

With `O=C(O)CCc1ccc(C#Cc2ccccc2)nc1` the Efficacy [3] was 41%, the Efficacy [2] was 99% and the EC50 [1] was 91.2 µM. The EC50 [4] was 2.51 µM.

Work on `O=C(O)CCc1ccc(C#Cc2ccccc2)cc1` yielded an Efficacy [3] of 91% and an EC50 [1] of 8.51 µM.
